# Source: US9988361B2, “Anti-enterovirus 71 thiadiazolidine derivative” (JIANGSU KANION PHARMACEUTICAL CO. LTD, priority 2014, dated 2018)
# Test system: EV71 virus strain Shenzhen/120F1/09
# Assay: EV71 in-vitro cytopathic effect (CPE) test
# Assay type: cell-based, RD cells of human rhabdomyoma
# Conditions: Enterovirus A, 72 h; RD cells, EV71 100 TCID50, 3 days, CCK8 readout; read-out: EC50 by EC71 CPE test, EV71
# Experimental: Test of EV71 In-Vitro Cytopathic Effect (CPE) To test the in-vitro antiviral activity and cytotoxicity of a compound to HFMD virus EV71 by means of cytopathic effect (CPE) test. […] Cell line: RD cells of human rhabdomyoma • 3. Cell culture media: DMEM medium added with 10% serum, Penicillin/Streptomycin and L-[…]×) • 4. […] Cell inoculation: digest off the RD cells from the attached state, then dilute them with culture medium to a density of 80000/ml and inoculate 100 μl into the micro wells the 96-well plate. • 2. Dilution of compound: • Step 1: prepare the dry powder of a compound to test into a 10 mM solution in DMSO. Then dilute the compound by three times to eight concentration points. Dilute the reference compounds with the same method. • Step 2: further dilute the diluted solution of the compound in DMSO with cell culture medium. Add 10 μl DMSO solution for each well into 240 μl culture medium. • 3. Add the diluted compound solution by 50 μl each well into the 96-well plate inoculated with cells (double holes, final concentration of DMSO is 1%). • 4. Dilution of virus: dilute EV71 virus solution by 10000 times to a concentration of 100 TCID50/50 μl/. Add the diluted virus solution by 50 μl each well into the 96-well plate. Prepare another 96-well plate to replace the virus with culture medium and similarly inoculate the cells. Add the compound to test the toxicity of compound on cells. • 5. Cultivate the 96-well plate 3 days at the conditions of 37° C. and 5% CO2. • 6. EC50 and CC50 tests: add the cellular activity test reagent CCK8 into the micro-wells by 20 μl/well. Use ELIASA to read the absorbancy at the wavelength of 450 nm and 630 nm. • 7.
row,SMILES,EC50
1,"O=S1(=O)N(CCCCCOc2ccc(-c3ccc(Cl)cc3)cc2)CCN1c1ccncc1 [Embodiment 6, 2-(5-((4′-chloro-[1,1′-biphenyl]-4-yl)oxy)pentyl)-5-(pyridin-4-yl)-1,2,5-thiadiazolidine-1,1-dioxide]",50 to 100 nM
2,CCO/N=C/c1ccc(OCCCCCN2CCN(c3ccncc3)S2(=O)=O)cc1 [Embodiment 7],< 50 nM
3,CCO/N=C1\CCc2cc(OCCCCCN3CCN(c4ccncc4)S3(=O)=O)ccc21 [Embodiment 8],50 to 100 nM
4,"CCc1nc(-c2ccc(OCCCCCN3CCN(c4ccncc4)S3(=O)=O)cc2)no1 [Embodiment 10, 2-(5-(4-(5-ethyl-1,2,4-oxadiazol-3-yl)-phenoxy)-pentyl)-5-(pyridin-4-yl)-1,2,5-thiadiazolidine-1,1-dioxide]",50 to 100 nM
5,"CCn1nnc(-c2ccc(OCCCCCN3CCN(c4ccncc4)S3(=O)=O)cc2)n1 [Embodiment 11, 2-(5-(4-(2-ethyl-2H-tetrazol-5-yl)-phenoxy)pentyl)-5-(pyridin-4-yl)-1,2,5-thiadiazolidine-1,1-dioxide]",50 to 100 nM
6,"CCOc1noc2cc(OCCCCCN3CCN(c4ccncc4)S3(=O)=O)ccc12 [Embodiment 12, 2-(5-((3-ethoxy-benzo[d]isoxazole-6-yl)-oxy)pentyl)-5-(pyridin-4-yl)-1,2,5-thiadiazolidine-1,1-dioxide]",< 50 nM
7,"O=S1(=O)N(CCOCCOc2ccc(-c3ccc(Cl)cc3)cc2)CCN1c1ccncc1 [Embodiment 13, 2-(2-(2-((4′-chloro-[1,1′-biphenyl]-4-yl)oxy)ethoxy)ethyl)-5-(pyridin-4-yl)-1,2,5-thiadiazolidine-1,1-dioxide]",100 to 500 nM
8,"CCO/N=C/c1ccc(OCCC(C)CCN2CCN(c3ccncc3)S2(=O)=O)cc1 (centres unmarked) [Embodiment 14, (E)-4-((5-(1,1-dioxo-5-(pyridin-4-yl)-1,2,5-thiadiazolidine-2-yl)-3-methyl-pentyl)-oxy)-benzaldehyde-O-ethyloxime]",< 50 nM
9,"CCOc1noc2cc(OCCC(C)CCN3CCN(c4ccncc4)S3(=O)=O)ccc12 (centres unmarked) [Embodiment 15, 2-(5-((3-ethoxy-benzo[d]isoxazole-6-yl)-oxy)-3-methyl-pentyl)-5-(pyridin-4-yl)-1,2,5-thiadiazolidine-1,1-dioxide]",< 50 nM
10,"Nc1cc(N2CCN(CCCCCOc3ccc(-c4ccc(Cl)cc4)cc3)S2(=O)=O)ccn1 [Embodiment 16, 2-(2-aminopyridine-4-yl)-5-(5-((4′-chloro-[1,1′-biphenyl]-4-yl)-oxy)-pentyl)-1,2,5-thiadiazolidine-1,1-dioxide]",< 50 nM
11,"CCO/N=C/c1ccc(OCCC(C)CCN2CCN(c3ccnc(N)c3)S2(=O)=O)cc1 (centres unmarked) [Embodiment 17, (E)-4-((5-(5-(2-amino-pyridin-4-yl)-1,1-dioxo-1,2,5-thiadiazolidine-2-yl)-3-methyl-pentyl)-oxy)-benzaldehyde-O-ethylketoxime]",< 50 nM
12,"CCOc1noc2cc(OCCCCCN3CCN(c4ccnc(NC)c4)S3(=O)=O)ccc12 [Embodiment 18, 2-(5-((3-ethoxy-benzo[d]isoxazol-6)-oxo)-pentyl)-5-(2-(methylamino)-pyridine-4)-1,2,5-thiadiazoline-1,1-dioxide]",< 50 nM
13,"O=S1(=O)N(CCCCC2CCc3cc(-c4ccc(Cl)cc4)ccc3O2)CCN1c1ccncc1 (centres unmarked) [Embodiment 19, 2-(4-(6-(4-chlorophenyl)-chroman-2-yl)-butyl)-5-(pyridin-4-yl)-1,2,5-thiadiazolidine-1,1-dioxide]",100 to 500 nM
14,"CCO/N=C/c1ccc2c(c1)CCC(CCCCN1CCN(c3ccncc3)S1(=O)=O)O2 (centres unmarked) [Embodiment 21, (E)-2-(4-(1,1-dioxo-5-(pyridin-4-yl)-1,2,5-thiadiazolidine-2-yl)-butyl)-chroman-6-formaldehyde-O-ethyloxime]",< 50 nM
15,"Nc1cc(N2CCN(CCCCCOc3ccc(C=O)cc3)S2(=O)=O)ccn1 [Embodiment 24, 4-((5-(5-(2-aminopyridin-4-yl)-1,1-dioxide-1,2,5-thiadiazolidine-2-yl)-pentyl)-oxy)-benzaldehyde]",500 to 1000 nM
16,"CCO/N=C/c1ccc(OCCCCCCN2CCN(c3ccnc(N)c3)S2(=O)=O)cc1 [Embodiment 25, (E)-4-((6-(5-(2-aminopyridin-4-yl)-1,1-dioxide-1,2,5-thiadiazolidine-2-yl)-hexyl)-oxy)-benzaldehyde-O-ethyl ketoxime]",< 50 nM

row,SMILES,EC50
1,CCO/N=C/c1ccc(OCCCCN2CCN(c3ccnc(N)c3)S2(=O)=O)cc1 [Embodiment 26],100 to 500 nM
2,"CCn1nnc(-c2ccc(OCCCCCN3CCN(c4ccnc(N)c4)S3(=O)=O)cc2)n1 [Embodiment 27, 4-(5-(5-(4-(2-ethyl-tetrazol-5-yl)-phenoxy)-pentyl)-1,1-dioxide-1,2,5-thiadiazolidine-2-yl)-pyridin-2-amine]",< 50 nM
3,"CCOc1noc2cc(OCCCCCN3CCN(c4ccnc(N)c4)S3(=O)=O)ccc12 [Embodiment 28, 4-(5-(5-((3-ethoxy-1,2-benzoxazol-6-yl)-oxy)-pentyl)-1,1-dioxide-1,2,5-thiadiazolidine-2-yl)-pyridin-2-amine]",< 50 nM
4,"CCO/N=C1\CCc2cc(OCCC(C)(C)CCN3CCN(c4ccnc(N)c4)S3(=O)=O)ccc21 [Embodiment 30, (E)-2-(2-amino-pyridin-4-yl)-5-(5-((1-(ethoxy-imino)-2,3-dihydro-1H-inden-5-yl)-oxy)-3,3-dimethylpentyl)-1,2,5-thiadiazolidine-1,1-dioxide]",< 50 nM
5,"CCO/N=C1\CCc2cc(OCCC(F)(F)CCN3CCN(c4ccnc(N)c4)S3(=O)=O)ccc21 [Embodiment 31, (E)-2-(2-amino-pyridin-4-yl)-5-(5-((1-(ethoxy-imino)-2,3-dihydro-1H-inden-5-yl)-oxy)-3,3-difluoropentyl)-1,2,5-thiadiazolidine-1,1-dioxide]",100 to 500 nM
6,"CCO/N=C/c1ccc(OCCCCCN2CCN(c3ccnc(C)c3)S2(=O)=O)cc1 [Embodiment 32, (E)-4-((5-(5-(2-methylpyridin-4-yl)-1,1-dioxide-1,2,5-thiadiazol-2-yl)-pentyl)-oxy)-benzaldehyde-O-ethyl ketoxime]",< 50 nM
7,"CCO/N=C/c1ccc(OCCCCCN2CCN(c3ccc(C)nn3)S2(=O)=O)cc1 [Embodiment 33, (E)-4-((5-(5-(6-methyl-pyridazin-3-yl)-1,1-dioxide-1,2,5-thiadiazolidine-2-yl)-pentyl)-oxy)-benzaldehyde-O-ethyl ketoxime]",100 to 500 nM
8,"CCO/N=C/c1ccc(OCCCCCN2CCN(c3ccc(Cl)nn3)S2(=O)=O)cc1 [Embodiment 34, (E)-4-((5-(5-(6-chloro-pyridazin-3-yl)-1,1-dioxide-1,2,5-thiadiazolidine-2-yl)-pentyl)-oxy)-benzaldehyde-O-ethyl ketoxime]",500 to 1000 nM
9,"CCO/N=C/c1ccc(OCCCCCN2CCN(c3nccs3)S2(=O)=O)cc1 [Embodiment 35, (E)-4-((5-(1,1-dioxide-5-(thiazol-2-yl)-1,2,5-thiadiazolidine-2-yl)-pentyl)-oxy)-benzaldehyde-O-ethyl ketoxime]",100 to 500 nM
10,"CCO/N=C/c1ccc(OCCCCCN2CCN(c3ccnc(NC(C)=O)c3)S2(=O)=O)cc1 [Embodiment 36, (E)-N-(4-(5-(5-(4-((ethoxy-imino)-methyl)-phenoxy)-pentyl)-1,1-dioxide-1,2,5-thiadiazolidine-2-yl)-pyridin-2-yl)-acetamide]",< 50 nM
11,CCO/N=C/c1ccc(OCCCCCN2CCN(c3ccnc(C(=O)OC)c3)S2(=O)=O)cc1 [Embodiment 37],500 to 1000 nM
12,"CCO/N=C/c1ccc(OCCCCCN2CCN(c3cc(N)ncn3)S2(=O)=O)cc1 [Embodiment 38, (E)-4-((5-(5-(6-amino-pyrimidin-4-yl)-1,1-dioxide-1,2,5-thiadiazolidine-2-yl)-pentyl)-oxy)-benzaldehyde-O-ethyl ketoxime]",< 50 nM
13,"CCO/N=C/c1ccc(OCCCCCN2CCN(c3ccnc(F)c3)S2(=O)=O)cc1 [Embodiment 39, (E)-4-((5-(5-(2-Fluoro-4-yl)-1,1-dioxide-1,2,5-thiadiazolidine-2-yl)-pentyl)-oxy)-benzaldehyde-O-ethyl ketoxime]",50 to 100 nM
14,"CCO/N=C/c1ccc(OCCCCCN2CCN(c3ccnc(NCCO)c3)S2(=O)=O)cc1 [Embodiment 40, (E)-4-((5-(5-(2-((2-hydroxyethyl)-amino)-pyridin-4-yl)-1,1-dioxide-1,2,5-thiadiazolidine-2-yl)-pentyl)-oxy)-benzaldehyde-O-ethyl ketoxime]",< 50 nM
15,"CCO/N=C/c1ccc(OCCCCCN2CCN(c3ccnc(NC)c3)S2(=O)=O)cc1 [Embodiment 41, (E)-4-((5-(5-(2-(methylamino)-pyridin-4-yl)-1,1-dioxide-1,2,5-thiadiazolidine-2-yl)-pentyl)-oxy)-benzaldehyde-O-ethyl ketoxime]",< 50 nM
16,"CCO/N=C/c1ccc(OCCCCCN2CCN(c3ccnc(N4CCC4)c3)S2(=O)=O)cc1 [Embodiment 42, (E)-4-((5-(5-(2-(azetidin-1-yl)-pyridin-4-yl)-1,1-dioxide-1,2,5-thiadiazolidine-2-yl)-pentyl)-oxy)-benzaldehyde-O-ethyl ketoxime]",100 to 500 nM
